Assay results taken from patent US20090156598A1, “Imidazolopyrimidine modulators of TRPV1” (priority 2007, published 2009).

What was measured:
[1] = biological target: T1, human TRPV1 (Homo sapiens, UniProt Q8NER1); assay: Functional assay: block of capsaicin-induced Ca2+ influx, human assay (FLIPR, hTRPV1/HEK293); type: cell-based; settings: hTRPV1/HEK293 cells, 150 nM capsaicin challenge, mean; > value = solubility limit in assay medium
T1 construct: expressed in transfected cells; host or cells: HEK293 (hTRPV1/HEK293), zeocin selection
Protocol: (§1) Functional assay: block of capsaicin-induced Ca^2+ influx
(§2) HEK293 cells were transfected with human TRPV1 cloned in pcDNA3.1zeo(+) using the Effectene non-liposomal lipid based transfection kit (Qiagen) (hTRPV1/HEK293). hTRPV1/HEK293 cells were routinely grown as monolayers under selection in zeocin (200 μg/mL; Invitrogen) in Dulbecco's Modified Eagle Medium (DMEM, Gibco BRL) supplemented with 10% fetal bovine serum, and penicillin/streptomycin (50 units/mL) in 5% CO2 at 37° C. Cells were passaged frequently, every 3-5 days, to avoid overgrowth, depletion of essential medium components, or acidic medium exposure. Cells were passaged using a brief wash in 0.05% trypsin with 1 mM EDTA, followed by dissociation in divalent-free phosphate-buffered saline (Hyclone #SH30028.02). Dissociated cells were seeded onto poly-D-lysine coated black-walled 96-well plates (Biocoat; Becton Dickinson #354640) at about 40,000 cells per well and grown for approximately 1 day in culture medium to near confluency. The assay buffer was composed of 130 mM NaCl, 2 mM KCl, 2 mM MgCl2, 10 mM HEPES, 5 mM glucose, and either 2 mM or 20 μM CaCl2. On the day of the experiment, the culture medium was replaced with 2 mM calcium assay buffer using an automated plate washer (EL×405; Biotek, VT). The cells were incubated in 100 μL/well Fluo-3/AM (2 μM; TEFLabs #0116) with Pluronic F127 (100 μg/mL; Sigma #P2443) for 1 h at rt in the dark. After loading the cells, the dye solution was replaced with 50 μL/well of 20 μM calcium assay buffer using the EL×405 plate washer. Test compounds (50 μL/well) were added to the plate and incubated for 30 min. Intracellular Ca^2+ levels were subsequently assayed using a Fluorometric Imaging Plate Reader (FLIPR™ instrument, Molecular Devices, CA) to simultaneously monitor Fluo-3 fluorescence in all wells (λexcitation=488 nm, λemission=540 nm) during challenge with agonist (capsaicin). The IC50 values were determined. Cells were challenged with 150 nM capsaicin and the fluorescence counts were captured following agonist addition at a sampling rate of 0.33 Hz. The contents of the wells were mixed 3 times (40 μL mix volume) immediately after the additions were made. Concentration-dependence of block was determined by exposing each well of cells in duplicate rows of a 96-well plate to a serial dilution of test compound. The concentration series usually started at 10 μM with a three-fold serial decrement in concentration. The magnitude of the capsaicin response was determined by measuring the change in fluo3 fluorescence before and 100 seconds after the addition of the agonist. Data were analyzed using a non-linear regression program (Origin; OriginLab, MA).
(§3) IC50 values shown are the average (mean) of the results obtained. Where activity is shown as greater than (>) a particular value, the value is the solubility limit of the compound in the assay medium.

[2] = biological target: T2, rat TRPV1 (Rattus norvegicus, UniProt O35433); assay: Functional assay: block of capsaicin-induced Ca2+ influx, rat assay (FLIPR, rTRPV1/HEK293); type: cell-based; settings: rTRPV1/HEK293 cells, capsaicin challenge, mean; > value = solubility limit in assay medium
T2 construct: expressed in transfected cells; host or cells: HEK293 (rTRPV1/HEK293), geneticin selection
Protocol: as §1, §2
This assay was performed similarly to the human assay described above, but using HEK293 cells transfected with rat TRPV1 (rTRPV1/HEK293).
as §3

T1 sequence (Q8NER1 whole entry): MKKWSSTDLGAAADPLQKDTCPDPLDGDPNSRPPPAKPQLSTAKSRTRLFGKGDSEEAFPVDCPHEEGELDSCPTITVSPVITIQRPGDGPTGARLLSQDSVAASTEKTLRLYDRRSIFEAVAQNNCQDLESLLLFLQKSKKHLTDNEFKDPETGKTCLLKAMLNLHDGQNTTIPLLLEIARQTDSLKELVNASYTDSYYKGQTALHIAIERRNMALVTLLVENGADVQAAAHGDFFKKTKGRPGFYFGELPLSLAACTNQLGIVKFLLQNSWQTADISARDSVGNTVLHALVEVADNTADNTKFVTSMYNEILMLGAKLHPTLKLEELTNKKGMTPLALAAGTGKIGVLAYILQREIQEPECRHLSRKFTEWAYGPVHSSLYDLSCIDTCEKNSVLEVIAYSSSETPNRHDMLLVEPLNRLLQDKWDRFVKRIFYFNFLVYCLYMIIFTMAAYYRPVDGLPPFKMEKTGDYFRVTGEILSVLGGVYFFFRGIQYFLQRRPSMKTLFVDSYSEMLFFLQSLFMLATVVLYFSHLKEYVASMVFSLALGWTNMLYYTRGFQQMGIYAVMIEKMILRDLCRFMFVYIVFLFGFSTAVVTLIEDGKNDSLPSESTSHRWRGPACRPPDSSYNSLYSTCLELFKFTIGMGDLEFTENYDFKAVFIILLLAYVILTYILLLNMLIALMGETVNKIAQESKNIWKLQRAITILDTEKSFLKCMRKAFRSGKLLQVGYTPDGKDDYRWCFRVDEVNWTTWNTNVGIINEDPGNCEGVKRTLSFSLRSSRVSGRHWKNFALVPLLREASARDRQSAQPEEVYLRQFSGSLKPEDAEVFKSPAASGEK
T2 sequence (O35433 whole entry): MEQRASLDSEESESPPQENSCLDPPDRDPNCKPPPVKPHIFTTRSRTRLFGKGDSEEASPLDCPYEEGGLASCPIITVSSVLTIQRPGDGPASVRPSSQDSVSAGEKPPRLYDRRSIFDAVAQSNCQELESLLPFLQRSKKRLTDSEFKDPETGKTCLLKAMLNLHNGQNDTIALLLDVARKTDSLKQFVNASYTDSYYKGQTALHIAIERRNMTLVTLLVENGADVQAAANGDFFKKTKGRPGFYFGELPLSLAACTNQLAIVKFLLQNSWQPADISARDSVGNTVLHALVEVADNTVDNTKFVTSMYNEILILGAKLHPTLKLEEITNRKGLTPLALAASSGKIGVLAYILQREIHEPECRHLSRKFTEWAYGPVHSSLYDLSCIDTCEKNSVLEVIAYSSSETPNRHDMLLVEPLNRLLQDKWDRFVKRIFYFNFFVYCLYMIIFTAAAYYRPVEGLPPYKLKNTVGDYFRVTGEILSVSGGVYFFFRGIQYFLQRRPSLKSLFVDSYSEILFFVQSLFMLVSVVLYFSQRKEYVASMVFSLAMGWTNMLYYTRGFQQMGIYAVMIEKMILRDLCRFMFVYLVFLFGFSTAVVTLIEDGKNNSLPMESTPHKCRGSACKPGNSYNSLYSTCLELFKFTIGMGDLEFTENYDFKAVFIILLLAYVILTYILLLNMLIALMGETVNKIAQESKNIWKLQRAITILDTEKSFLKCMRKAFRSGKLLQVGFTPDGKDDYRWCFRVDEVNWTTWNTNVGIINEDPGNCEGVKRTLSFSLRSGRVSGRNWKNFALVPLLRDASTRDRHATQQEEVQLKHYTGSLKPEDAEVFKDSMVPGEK

## FC(F)(F)c1ccc(Nc2ncnc3[nH]c(Nc4c(Cl)cccc4Cl)nc23)cc1 [Example 1, N^8-(2,6-Dichloro-phenyl)-N^6-(4-trifluoromethyl-phenyl)-9H-purine-6,8-diamine]
[1]
  IC50: 17 nM
[2]
  IC50: 4.9 nM

## FC(F)(F)c1ccc(Nc2ncnc3[nH]c(Nc4c(Cl)cccc4Cl)nc23)cn1 [Example 2, N^8-(2,6-Dichloro-phenyl)-N^6-(6-trifluoromethyl-pyridin-3-yl)-9H-purine-6,8-diamine]
[2]
  IC50: 19 nM

## CC(C)(C)c1ccc(Nc2ncnc3[nH]c(Nc4c(Cl)cccc4Cl)nc23)cc1 [Example 3, N^6-(4-tert-Butyl-phenyl)-N^8-(2,6-dichloro-phenyl)-9H-purine-6,8-diamine]
[1]
  IC50: 2.3 nM
[2]
  IC50: 0.15 nM

## Clc1cccc(Cl)c1Nc1nc2c(Nc3ccccc3)ncnc2[nH]1 [Example 4, N^8-(2,6-Dichloro-phenyl)-N^6-phenyl-9H-purine-6,8-diamine]
[1]
  IC50: 3390 nM
[2]
  IC50: 1750 nM

## CS(=O)(=O)c1ccc(Nc2ncnc3[nH]c(Nc4c(Cl)cccc4Cl)nc23)cc1 [Example 5, N^8-(2,6-Dichloro-phenyl)-N^6-(4-methanesulfonyl-phenyl)-9H-purine-6,8-diamine]
[1]
  IC50: 170 nM
[2]
  IC50: 18 nM

## Cc1nc(Nc2ccc(C(F)(F)F)cc2)c2nc(Nc3c(Cl)cccc3Cl)[nH]c2n1 [Example 6, N^8-(2,6-Dichloro-phenyl)-2-methyl-N^6-(4-trifluoromethyl-phenyl)-9H-purine-6,8-diamine]
[1]
  IC50: 29 nM
[2]
  IC50: 3 nM

## FC(F)(F)c1ccc(Nc2ncnc3[nH]c(Nc4ccccc4Cl)nc23)cc1 [Example 7, N^8-(2-Chloro-phenyl)-N^6-(4-trifluoromethyl-phenyl)-9H-purine-6,8-diamine]
[1]
  IC50: > 6670 nM
[2]
  IC50: > 6670 nM

## FC(F)(F)c1ccc(Nc2ncnc3[nH]c(Nc4ccccc4C(F)(F)F)nc23)cc1 [Example 8, N^6-(4-Trifluoromethyl-phenyl)-N^8-(2-trifluoromethyl-phenyl)-9H-purine-6,8-diamine]
[1]
  IC50: 3070 nM
[2]
  IC50: 1010 nM

## FC(F)(F)c1ccc(Nc2ncnc3[nH]c(Nc4ccccc4C(F)(F)F)nc23)cn1 [Example 9, N^8-(2-Trifluoromethyl-phenyl)-N^6-(6-trifluoromethyl-pyridin-3-yl)-9H-purine-6,8-diamine]
[1]
  IC50: 2300 nM
[2]
  IC50: 1050 nM

## Cn1c(Nc2c(Cl)cccc2Cl)nc2c(Nc3ccc(C(F)(F)F)cc3)ncnc21 [Example 10, N^8-(2,6-Dichloro-phenyl)-9-methyl-N^6-(4-trifluoromethyl-phenyl)-9H-purine-6,8-diamine]
[1]
  IC50: 1460 nM
[2]
  IC50: 1130 nM
